Measured values from patent publication US9102628B2, “Derivatives of pyrazole 3,5-carboxylates, their preparation and their application in therapeutics” (SANOFI, priority 2007, dated 2015).

Biological target: T1, human recombinant soluble enzyme BACE1 (Homo sapiens, UniProt P56817)
T1 construct: purchased R&D Systems 931-AS
Assay: Test 1: Inhibition of soluble BACE1 (synthetic substrate S-10-R, HPLC/UV detection of cleavage product)
Type: biochemical
Settings: BACE1 20 nM, substrate S-10-R 350 μM, 1 hour at 37° C., sodium acetate/acetic acid buffer pH 4.5, 10% DMSO
From the text: Test 1: Inhibition of Soluble BACE1
This test uses soluble BACE1 and a synthetic substrate of BACE1.
The human recombinant soluble enzyme BACE1 is available from R&D Systems (reference 931-AS).
The synthetic peptide, made up of the amino acid sequence Ser-Glu-Val-Asn-Leu-Asp-Ala-Glu-Phe-Arg (S-10-R, available from NeoMPS, reference SP000122), is used as synthetic substrate of BACE1.
This synthetic substrate incorporates the cleavage site of BACE1 and fluorescent or chromogenic groups, so that the cleavage products can then be detected, either with UV after separation by HPLC, or by measurement of fluorescence or of optical density. In the present case, the cleavage product Asp-Ala-Glu-Phe-Arg, released during hydrolysis of S-10-R by BACE1, is quantified by UV detection [195 nm] after separation by HPLC with a gradient of acetonitrile from 2% to 100% [HP1100, Agilent; Column Atlantis dC18 (5 mm×2.1 mm; 3 μm)]. […]
The percentage inhibition of the activity of BACE1 by the compounds of the invention is determined as a function of the amount of cleavage product detected by HPLC: the smaller the amount of cleavage product detected, the greater the inhibitory activity of the compounds.
The values of IC50 are then calculated from the percentage inhibition previously determined, in relation to the concentration of the test compounds.

T1 sequence (P56817 46-457 limits assumed): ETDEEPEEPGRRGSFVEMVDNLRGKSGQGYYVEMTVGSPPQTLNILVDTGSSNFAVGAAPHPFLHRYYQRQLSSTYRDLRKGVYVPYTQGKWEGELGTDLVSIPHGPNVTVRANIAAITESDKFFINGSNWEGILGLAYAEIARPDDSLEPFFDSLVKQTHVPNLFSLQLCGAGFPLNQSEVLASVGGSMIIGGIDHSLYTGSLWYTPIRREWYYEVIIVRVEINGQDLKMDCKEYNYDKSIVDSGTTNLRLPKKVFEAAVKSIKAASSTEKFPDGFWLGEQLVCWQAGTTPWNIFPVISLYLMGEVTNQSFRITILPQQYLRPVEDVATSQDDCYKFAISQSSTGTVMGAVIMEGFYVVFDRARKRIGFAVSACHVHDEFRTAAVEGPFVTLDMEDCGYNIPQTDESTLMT

## CCCC1CCCCN1C(=O)c1cc(C(=O)N[C@@H](Cc2cc(F)cc(F)c2)[C@H](O)CNC2(c3cccc(C(F)(F)F)c3)CC2)nn1CC (stereo partly drawn) [compound 53, N-{(1S,2R)-1-(3,5-difluorobenzyl)-2-hydroxy-3-({1-[3-(trifluoromethyl)phenyl]cyclopropyl}amino)propyl}-1-ethyl-5-[(2-propylpiperidin-1-yl)carbonyl]-1H-pyrazole-3-carboxamide]
  IC50: 73 nM

## CCN(Cc1ccccc1)NC(=O)c1cc(C(=O)N[C@@H](Cc2ccccc2)[C@H](O)CNCc2cccc(C(F)(F)F)c2)nn1CC [compound 69, 5-[(2-benzyl-2-ethylhydrazino)carbonyl]-N-[(1S,2R)-1-benzyl-2-hydroxy-3-{[3-(trifluoromethyl)benzyl]amino}propyl]-1-ethyl-1H-pyrazole-3-carboxamide]
  IC50: 2000 nM
